# Tested on: MV-4-11 cells
# Assay: Gene expression microarray analysis (Affymetrix PrimeView) and GSEA
# Format: cell-based, human
# Parameters: RFU PODN (11730768_x_at) / Fold change /veh PODN (11730768_x_at) / RFU LINC00158 (11744669_a_at) / Fold change /veh LINC00158 (11744669_a_at) / RFU DUSP10 (11751237_a_at) / Fold change /veh DUSP10 (11751237_a_at) / RFU ID3 (11757404_x_at) / Fold change /veh ID3 (11757404_x_at) / RFU PLEKHG5 (11737974_s_at) / Fold change /veh PLEKHG5 (11737974_s_at) / RFU LRRC4B (11730491_at) / Fold change /veh LRRC4B (11730491_at) / RFU GIMAP4 (11747438_a_at) / Fold change /veh GIMAP4 (11747438_a_at) / RFU KRT8 (11758183_x_at) / Fold change /veh KRT8 (11758183_x_at) / RFU CNN1 (11734310_a_at) / Fold change /veh CNN1 (11734310_a_at) / RFU VPS37D (11726825_at) / Fold change /veh VPS37D (11726825_at) / RFU C10orf10 (11716522_x_at) / Fold change /veh C10orf10 (11716522_x_at) / RFU KIR2DL2 /// KIR2DL4 /// KIR2DL5A /// KIR2DL5B /// KIR2DS1 /// KIR2DS2 /// KIR2DS3 /// KIR2DS4 /// KIR3DL3 /// KIR3DL3 /// KIR3DS1 (11738374_at) / Fold change /veh KIR2DL2 /// KIR2DL4 /// KIR2DL5A /// KIR2DL5B /// KIR2DS1 /// KIR2DS2 /// KIR2DS3 /// KIR2DS4 /// KIR3DL3 /// KIR3DL3 /// KIR3DS1 (11738374_at) / RFU C1QL1 (11718748_at) / Fold change /veh C1QL1 (11718748_at) / RFU TMPRSS4 (11747572_a_at) / Fold change /veh TMPRSS4 (11747572_a_at) / RFU HAMP (11756126_x_at) / Fold change /veh HAMP (11756126_x_at) / RFU RNFT2 (11725882_a_at) / Fold change /veh RNFT2 (11725882_a_at) / RFU NR4A2 (11747474_a_at) / Fold change /veh NR4A2 (11747474_a_at) / RFU ABCC12 (11746883_a_at) / Fold change /veh ABCC12 (11746883_a_at) / RFU TMEM136 (11760407_x_at) / Fold change /veh TMEM136 (11760407_x_at) / RFU CLDN22 /// WWC2 (11732394_at) / Fold change /veh CLDN22 /// WWC2 (11732394_at) / RFU HLA-DPB1 (11760878_x_at) / Fold change /veh HLA-DPB1 (11760878_x_at) / RFU SPINT1 (11716480_a_at) / Fold change /veh SPINT1 (11716480_a_at) / RFU GAP43 (11754022_s_at) / Fold change /veh GAP43 (11754022_s_at) / RFU A4GNT (11735810_at) / Fold change /veh A4GNT (11735810_at) / RFU PRB3 (11715151_x_at) / Fold change /veh PRB3 (11715151_x_at) / RFU TUBB4B (11761932_at) / Fold change /veh TUBB4B (11761932_at) / RFU CAPN14 (11732068_a_at) / Fold change /veh CAPN14 (11732068_a_at) / RFU TMCC2 (11721928_a_at) / Fold change /veh TMCC2 (11721928_a_at) / RFU IRGQ (11745062_a_at) / Fold change /veh IRGQ (11745062_a_at) / RFU FAM174B (11720279_a_at) / Fold change /veh FAM174B (11720279_a_at) / RFU TMPRSS4 (11748680_a_at) / Fold change /veh TMPRSS4 (11748680_a_at) / RFU FAM212B (11763350_a_at) / Fold change /veh FAM212B (11763350_a_at) / RFU PLEKHG5 (11743358_a_at) / Fold change /veh PLEKHG5 (11743358_a_at) / RFU ZSCAN30 (11745921_a_at) / Fold change /veh ZSCAN30 (11745921_a_at) / RFU CMKLR1 (11741424_a_at) / Fold change /veh CMKLR1 (11741424_a_at) / RFU LOC101060620 /// MAPK8IP1 (11723275_at) / Fold change /veh LOC101060620 /// MAPK8IP1 (11723275_at) / RFU SPTSSB (11747773_x_at) / Fold change /veh SPTSSB (11747773_x_at) / RFU PRSS12 (11739890_at) / Fold change /veh PRSS12 (11739890_at) / RFU BIN1 (11741810_x_at) / Fold change /veh BIN1 (11741810_x_at) / RFU WNT11 (11732464_a_at) / Fold change /veh WNT11 (11732464_a_at) / RFU C10orf10 (11716521_a_at) / Fold change /veh C10orf10 (11716521_a_at) / RFU C5orf56 (11738089_at) / Fold change /veh C5orf56 (11738089_at) / RFU CYB561 (11721691_x_at) / Fold change /veh CYB561 (11721691_x_at) / RFU ANKRD19P (11752326_a_at) / Fold change /veh ANKRD19P (11752326_a_at) / RFU OR2T12 /// OR2T33 /// OR2T8 (11738714_s_at) / Fold change /veh OR2T12 /// OR2T33 /// OR2T8 (11738714_s_at) / RFU VCAN (11748164_a_at) / Fold change /veh VCAN (11748164_a_at) / RFU JSRP1 (11732532_at) / Fold change /veh JSRP1 (11732532_at) / RFU KRTAP10-11 (11738290_x_at) / Fold change /veh KRTAP10-11 (11738290_x_at) / RFU MYO3A (11730013_a_at) / Fold change /veh MYO3A (11730013_a_at) / RFU EBF3 (11725865_a_at) / Fold change /veh EBF3 (11725865_a_at) / RFU CAMK2N1 (11719241_x_at) / Fold change /veh CAMK2N1 (11719241_x_at) / RFU C5orf56 (11738088_a_at) / Fold change /veh C5orf56 (11738088_a_at) / RFU OLFML3 (11715873_a_at) / Fold change /veh OLFML3 (11715873_a_at) / RFU LOC100653217 /// NTM (11731650_a_at) / Fold change /veh LOC100653217 /// NTM (11731650_a_at) / RFU MAPK11 (11762145_a_at) / Fold change /veh MAPK11 (11762145_a_at) / RFU FIZ1 (11724087_x_at) / Fold change /veh FIZ1 (11724087_x_at) / RFU OASL (11726364_x_at) / Fold change /veh OASL (11726364_x_at) / RFU SOX15 (11748057_x_at) / Fold change /veh SOX15 (11748057_x_at) / RFU CD79A (11719716_a_at) / Fold change /veh CD79A (11719716_a_at) / RFU HIST1H1D (11736915_at) / Fold change /veh HIST1H1D (11736915_at) / RFU CASKIN2 (11723855_a_at) / Fold change /veh CASKIN2 (11723855_a_at) / RFU LOC730098 (11760151_x_at) / Fold change /veh LOC730098 (11760151_x_at) / RFU OR4N2 (11742367_at) / Fold change /veh OR4N2 (11742367_at) / RFU PRRT2 (11749266_a_at) / Fold change /veh PRRT2 (11749266_a_at) / RFU SNX32 (11753110_a_at) / Fold change /veh SNX32 (11753110_a_at) / RFU CDHR5 (11726645_a_at) / Fold change /veh CDHR5 (11726645_a_at) / RFU RCAN1 (11760418_a_at) / Fold change /veh RCAN1 (11760418_a_at) / RFU FAM167A (11723789_a_at) / Fold change /veh FAM167A (11723789_a_at) / RFU FAM26E (11764081_at) / Fold change /veh FAM26E (11764081_at) / RFU ISYNA1 (11749810_s_at) / Fold change /veh ISYNA1 (11749810_s_at) / RFU ACY1 (11761880_at) / Fold change /veh ACY1 (11761880_at) / RFU 11764098_at / Fold change /veh 11764098_at / RFU SAMD14 (11745864_x_at) / Fold change /veh SAMD14 (11745864_x_at) / RFU NPB (11741838_a_at) / Fold change /veh NPB (11741838_a_at) / RFU TMPRSS6 (11731388_a_at) / Fold change /veh TMPRSS6 (11731388_a_at) / RFU KRTAP10-2 (11738614_at) / Fold change /veh KRTAP10-2 (11738614_at) / RFU ARHGAP8 /// PRR5-ARHGAP8 (11727945_x_at) / Fold change /veh ARHGAP8 /// PRR5-ARHGAP8 (11727945_x_at) / RFU KRTAP5-7 /// NADSYN1 (11734609_at) / Fold change /veh KRTAP5-7 /// NADSYN1 (11734609_at) / RFU RASL12 (11751679_a_at) / Fold change /veh RASL12 (11751679_a_at) / RFU CDKN2B (11736163_a_at) / Fold change /veh CDKN2B (11736163_a_at) / RFU PRF1 (11729649_at) / Fold change /veh PRF1 (11729649_at) / RFU, ZNF638 /// ZNF638-IT1 / Fold change vs veh, ZNF638 /// ZNF638-IT1 / RFU, PANK3 / Fold change vs veh, PANK3 / RFU, SH3YL1 / Fold change vs veh, SH3YL1 / RFU, ZEB2 / Fold change vs veh, ZEB2 / RFU, NRIP1 / Fold change vs veh, NRIP1 / RFU, PTTG1IP / Fold change vs veh, PTTG1IP / RFU, CAPN2 / Fold change vs veh, CAPN2 / RFU, MED14 / Fold change vs veh, MED14 / RFU, SNORA58 / Fold change vs veh, SNORA58 / RFU, C1orf63 / Fold change vs veh, C1orf63 / RFU, LRRFIP1 / Fold change vs veh, LRRFIP1 / RFU, NDUFAF7 / Fold change vs veh, NDUFAF7 / RFU, SLC12A2 / Fold change vs veh, SLC12A2 / RFU, IBTK / Fold change vs veh, IBTK / RFU, ESF1 / Fold change vs veh, ESF1 / Fold change vs veh, TMEM50B / RFU, TAOK1 / Fold change vs veh, TAOK1 / RFU, ACBD3 / Fold change vs veh, ACBD3 / RFU, TMA16 / Fold change vs veh, TMA16 / RFU, RWDD3 / Fold change vs veh, RWDD3 / RFU, BCAT1 / Fold change vs veh, BCAT1 / RFU, EDEM3 / Fold change vs veh, EDEM3 / RFU, TMEM33 / Fold change vs veh, TMEM33 / RFU, WDR75 / Fold change vs veh, WDR75 / RFU, AHCTF1 / Fold change vs veh, AHCTF1 / RFU, TFRC / Fold change vs veh, TFRC / RFU, ZDHHC17 / Fold change vs veh, ZDHHC17 / RFU, NOM1 / Fold change vs veh, NOM1 / RFU, ARL8B / Fold change vs veh, ARL8B / RFU, ZBTB11 / Fold change vs veh, ZBTB11 / RFU, TAMM41 / Fold change vs veh, TAMM41 / RFU, KIAA1704 /// LOC100996395 / Fold change vs veh, KIAA1704 /// LOC100996395 / RFU, ING1 / Fold change vs veh, ING1 / RFU, TRMT61B / Fold change vs veh, TRMT61B / RFU, FUBP3 / Fold change vs veh, FUBP3 / RFU, TP53 / Fold change vs veh, TP53 / RFU, TNKS2 / Fold change vs veh, TNKS2 / RFU, ZFP14 / Fold change vs veh, ZFP14 / RFU, ACTR2 / Fold change vs veh, ACTR2 / RFU, PPP3R1 / Fold change vs veh, PPP3R1 / RFU, PIK3R1 / Fold change vs veh, PIK3R1 / RFU, HNRNPA1 / Fold change vs veh, HNRNPA1 / RFU, RNF170 / Fold change vs veh, RNF170 / RFU, ZNF28 / Fold change vs veh, ZNF28 / RFU, RNGTT / Fold change vs veh, RNGTT / RFU, OGT / Fold change vs veh, OGT / RFU, BRD1 / Fold change vs veh, BRD1 / RFU, MARS / Fold change vs veh, MARS / RFU, ZNF655 / Fold change vs veh, ZNF655 / RFU, FAHD1 / Fold change vs veh, FAHD1 / RFU, BDP1 / Fold change vs veh, BDP1 / RFU, LRRCC1 / Fold change vs veh, LRRCC1 / RFU, ARID1A / Fold change vs veh, ARID1A / RFU, ZNF146 / Fold change vs veh, ZNF146 / RFU, ZNF330 / Fold change vs veh, ZNF330 / RFU, GPN3 / Fold change vs veh, GPN3 / RFU, C9orf123 / Fold change vs veh, C9orf123 / RFU, N4BP2L2 / Fold change vs veh, N4BP2L2 / RFU, ARFIP1 / Fold change vs veh, ARFIP1 / RFU, FAM179B / Fold change vs veh, FAM179B / RFU, BCL10 / Fold change vs veh, BCL10 / RFU, UHRF1BP1L / Fold change vs veh, UHRF1BP1L / RFU, BET1 / Fold change vs veh, BET1 / RFU, CNOT2 / Fold change vs veh, CNOT2 / RFU, ZNF268 / Fold change vs veh, ZNF268 / Fold change vs veh, ZNF507 / RFU, DGCR2 / Fold change vs veh, DGCR2 / RFU, WDSUB1 / Fold change vs veh, WDSUB1 / Fold change vs veh, HSP90B1 /// MIR3652 / RFU, ADSS / Fold change vs veh, ADSS / RFU, GK / Fold change vs veh, GK / RFU, ZNF148 / Fold change vs veh, ZNF148 / RFU, TAF9 / Fold change vs veh, TAF9 / RFU, SLC1A5 / Fold change vs veh, SLC1A5 / RFU, SLMO2 / Fold change vs veh, SLMO2 / RFU, ABCC4 / Fold change vs veh, ABCC4 / RFU, LOC101060439 /// RAP1B / Fold change vs veh, LOC101060439 /// RAP1B / RFU, RFX7 / Fold change vs veh, RFX7 / RFU, GTPBP10 / Fold change vs veh, GTPBP10 / RFU, CNEP1R1 / Fold change vs veh, CNEP1R1 / RFU, BIVM-ERCC5 /// ERCC5 / Fold change vs veh, BIVM-ERCC5 /// ERCC5 / RFU, ILF3 / Fold change vs veh, ILF3 / RFU 11762660_at / Fold change /veh 11762660_at / RFU VCAN (11757783_s_at) / Fold change /veh VCAN (11757783_s_at) / RFU DDX43 (11728927_at) / Fold change /veh DDX43 (11728927_at) / RFU KRT8 (11758188_x_at) / Fold change /veh KRT8 (11758188_x_at) / RFU NKD1 (11759106_at) / Fold change /veh NKD1 (11759106_at) / RFU SRD5A1 (11742802_a_at) / Fold change /veh SRD5A1 (11742802_a_at) / RFU TPSAB1 /// TPSB2 (11721975_s_at) / Fold change /veh TPSAB1 /// TPSB2 (11721975_s_at) / RFU GSTM3 (11746129_a_at) / Fold change /veh GSTM3 (11746129_a_at) / RFU IL23R (11737362_x_at) / Fold change /veh IL23R (11737362_x_at) / RFU TMEM51 (11727254_a_at) / Fold change /veh TMEM51 (11727254_a_at) / RFU PIWIL2 (11732686_x_at) / Fold change /veh PIWIL2 (11732686_x_at) / RFU ORM1 (11744905_x_at) / Fold change /veh ORM1 (11744905_x_at) / RFU CCDC152 (11743942_at) / Fold change /veh CCDC152 (11743942_at) / RFU ECM1 (11717891_a_at) / Fold change /veh ECM1 (11717891_a_at) / RFU IL23R (11748794_a_at) / Fold change /veh IL23R (11748794_a_at) / RFU TNFAIP8L3 (11732012_x_at) / Fold change /veh TNFAIP8L3 (11732012_x_at) / RFU MBOAT4 (11741988_at) / Fold change /veh MBOAT4 (11741988_at) / RFU 11764193_at / Fold change /veh 11764193_at / RFU TMEM53 (11763286_at) / Fold change /veh TMEM53 (11763286_at) / RFU MAGEB2 (11727129_at) / Fold change /veh MAGEB2 (11727129_at) / RFU TMEM200A (11744735_a_at) / Fold change /veh TMEM200A (11744735_a_at) / RFU CCDC152 (11751479_a_at) / Fold change /veh CCDC152 (11751479_a_at) / RFU FAM211A (11726209_a_at) / Fold change /veh FAM211A (11726209_a_at) / RFU RGS16 (11746705_a_at) / Fold change /veh RGS16 (11746705_a_at) / RFU VCAN (11755009_s_at) / Fold change /veh VCAN (11755009_s_at) / RFU RHOB (11743442_s_at) / Fold change /veh RHOB (11743442_s_at) / RFU RGS16 (11720943_a_at) / Fold change /veh RGS16 (11720943_a_at) / RFU RGS16 (11720944_at) / Fold change /veh RGS16 (11720944_at) / RFU, VPS4B / Fold change vs veh, VPS4B / RFU, CREB1 / Fold change vs veh, CREB1 / RFU, DNAJC13 / Fold change vs veh, DNAJC13 / RFU, GNAQ / Fold change vs veh, GNAQ / RFU, CDK5R1 / Fold change vs veh, CDK5R1 / RFU, ZRANB3 / Fold change vs veh, ZRANB3 / RFU, CUL4A / Fold change vs veh, CUL4A / RFU, CCNY / Fold change vs veh, CCNY / RFU, UFL1 / Fold change vs veh, UFL1 / RFU, COG3 / Fold change vs veh, COG3 / RFU, DIAPH2 / Fold change vs veh, DIAPH2 / RFU, SKA2 / Fold change vs veh, SKA2 / RFU, AFF3 / Fold change vs veh, AFF3 / RFU, LMF1 / Fold change vs veh, LMF1 / RFU, IPO11 / Fold change vs veh, IPO11 / RFU, DFFB / Fold change vs veh, DFFB / RFU, FOXP1 / Fold change vs veh, FOXP1 / RFU, CARD8 / Fold change vs veh, CARD8 / RFU, STRN3 / Fold change vs veh, STRN3 / RFU, ADK / Fold change vs veh, ADK / RFU, RASSF2 / Fold change vs veh, RASSF2 / RFU, WIPF1 / Fold change vs veh, WIPF1 / RFU, LARP1B / Fold change vs veh, LARP1B / RFU, RASA1 / Fold change vs veh, RASA1 / RFU, RB1 / Fold change vs veh, RB1 / RFU, PPFIA1 / Fold change vs veh, PPFIA1 / RFU, MAT2A / Fold change vs veh, MAT2A / RFU, CCT5 / Fold change vs veh, CCT5 / RFU, WDR92 / Fold change vs veh, WDR92 / RFU, CUX1 / Fold change vs veh, CUX1 / RFU, TTC7A / Fold change vs veh, TTC7A / RFU, TMEM135 / Fold change vs veh, TMEM135 / RFU, DEPTOR / Fold change vs veh, DEPTOR / RFU, CPM / Fold change vs veh, CPM / RFU, DNAJB6 / Fold change vs veh, DNAJB6 / RFU, CACNA2D3 / Fold change vs veh, CACNA2D3 / RFU, DTX4 / Fold change vs veh, DTX4 / RFU, TFCP2 / Fold change vs veh, TFCP2 / RFU, GMCL1 /// GMCL1P1 / Fold change vs veh, GMCL1 /// GMCL1P1 / RFU, AEBP2 / Fold change vs veh, AEBP2 / RFU, SNHG1 /// SNORD22 /// SNORD25 /// SNORD26 /// SNORD27 /// SNORD28 /// SNORD29 /// SNORD31 / Fold change vs veh, SNHG1 /// SNORD22 /// SNORD25 /// SNORD26 /// SNORD27 /// SNORD28 /// SNORD29 /// SNORD31 / Fold change (Aza/veh), C12orf56 (ProbeSet 11735607_a_at) / Fold change (ACY-1035/veh), C12orf56 (ProbeSet 11735607_a_at) / Fold change (Aza/veh), FGFR1OP (ProbeSet 11751329_s_at) / Fold change (ACY-1035/veh), FGFR1OP (ProbeSet 11751329_s_at) / Fold change (Aza/veh), VPS36 (ProbeSet 11739960_a_at) / Fold change (ACY-1035/veh), VPS36 (ProbeSet 11739960_a_at) / RFU SYPL1 (11715823_x_at) / Fold change /veh SYPL1 (11715823_x_at) / RFU IGFBP7 (11715501_s_at) / Fold change /veh IGFBP7 (11715501_s_at) / RFU REEP3 (11722064_at) / Fold change /veh REEP3 (11722064_at) / RFU IGLL1 (11728026_x_at) / Fold change /veh IGLL1 (11728026_x_at): dose or concentration left out as unconfirmed
# Conditions: MV-4-11 cells, 48 hours
structure (smiles),measurement,value
Nc1ncn([C@@H]2O[C@H](CO)[C@@H](O)[C@H]2O)c(=O)n1 [azacitidine],Fold change /veh SPINT1 (11716480_a_at),1.00

# — article PMC5218480 (PLoS ONE, 2017)
